The values below come from US7321046B2, “Analogs of dictyostatin, intermediates therefor and methods of synthesis thereof” (University of Pittsburgh, priority 2002, dated 2008).

Structures are written as SMILES. Where two headings read alike, the source gives them in different places.

Test [1] concerns microtubules (tubulin polymer). Description: Radiolabeled ligand binding assays. Particulars: test agent 4 μM; radiolabel 4.0 μM; 37° C. The protocol:
The abilities of test agents to inhibit the binding of radiolabeled forms of the microtubule stabilizers paclitaxel, discodermolide and epothilone B from tubulin polymer were determined.
[^3H]Paclitaxel, [^3H]discodermolide and [^14C]epothilone B solutions were prepared as 125 μM stock solutions in 50% DMSO. Radiolabeled compound (final concentration, 4.0 μM) and test agents at final concentrations noted in the text and tables were mixed in 50 μL of 4:1 (v/v) 0.75 M aqueous MSG/DMSO and warmed to 37° C. Meanwhile, a reaction mixture containing 0.75 M MSG, 2.5 μM tubulin, and 25 μM ddGTP was prepared and incubated at 37° C. for 30 min to form microtubuless. A 200 μL aliquot of the microtubule mixture was added to the drug mixtures, and incubation continued for 30 min at 37° C. Reaction mixtures were centrifuged in an Eppendorf 5417C centrifuge at 14,000 rpm for 20 min at room temperature. Radiolabel in the supernatants (100 μL) was determined by scintillation spectrometry.

For test [2], the system named is 1A9/Ptx10 (Phe270 −> Val) β-tubulin mutant cells. Description: Antiproliferative assay (GI50, MTS), paclitaxel-resistant clone. The format is cell-based, human. Particulars: for fold-resistance: 1A9/Ptx10 versus parental 1A9. How it is done: (§1) Representative analogs were examined for their antiproliferative activities against human ovarian carcinoma 1A9 cells and their paclitaxel-resistant mutants, 1A9/Ptx10 and 1A9/Ptx22.
(§2) The effects of dictyostatin and its analogs on growth inhibition of parental (A549) and paclitaxel-resistant (1A9/Ptx10 and Ptx22) ovarian adenocarcinoma cell lines were evaluated following the antiproliferative assay protocol as described earlier (Minguez et al., 2003; Choy et al., 2003; Lazo et al., 2001). Cells were maintained in RPMI medium with 10% FBS in it, plated in tissue culture plates, and allowed to grow for 48-72 h before transferring them into 96-well plates. Cells were allowed to attach and grow for 48 h in 96-well plates after which they were treated with either control (DMSO) or drug in triplicate/quadruplicate. Cells were incubated with the compounds for 72 h. Cells were treated with MTS reagent before reading the plate in a Dynamax plate reader for determining the cell number. The fifty percent growth inhibition values (GI50 values) were calculated for the compounds against all the three cell lines.

For test [3], the system named is 1A9/Ptx22 (Ala364 −> Thr) β-tubulin mutant cells. The description is as above. The following applies: for fold-resistance: 1A9/Ptx22 versus parental 1A9. It is filed as cell-based, human. The protocol: as §1, §2
The test system of another test is T1, Bovine brain tubulin.
T1 construct: Bovine brain tubulin (10 μM) in 0.2 M MSG, 15 min at 20° C
Description: Pelleting assay (tubulin assembly EC50 determination). Particulars: tubulin 10 μM in 0.2 M MSG, 15 min at 20° C.; for EC50: concentration required to polymerize 50% of tubulin, read-out: EC50 (μM) ± SD (N). It is filed as biochemical. How it is done:
Dictyostatin and representative analogs were evaluated in a quantitative assay for their ability to promote tubulin polymerization. […] When the percent polymer formed was determined in the reactions, a comparison of the activities of all the analogs could be made.
The assay was performed under three different reaction conditions following the procedure reported earlier (Gapud et al., 2004). Reaction condition 1 included 0.2 M monosodium glutamate (MSG), 10 μM tubulin, 5% DMSO and varying concentrations of test agents. Reaction condition 2 included 0.8 M MSG, 400 μM GTP, 10 μM tubulin, 5% DMSO, and varying concentrations of test agents. Reaction condition 3 had 0.6 M MSG, 200 μM GTP, and 10 μM tubulin, and 5% DMSO, and varying concentrations of the test agents. The experimental protocol for all the three reaction conditions was the following. The reaction mixtures were incubated at room temperature (20-22° C.) for 15 min and spun for 10 min at 14,000 rpm in an Eppendorf microtube centrifuge. Aliquots of the supernatants were removed and assayed for protein content by the method of Lowry.

Test [4] has as its system human ovarian carcinoma cells (1A9). Description: Antiproliferative assay (GI50, MTS). The format is cell-based. The following applies: for antiproliferative potency / GI50 values (in words): Table 1 (1A9 and mutant lines). How it is done: as §1
as §2, with “The effects of dictyostatin and its analogs on growth inhibition of parental (A549) and paclitaxel-resistant (1A9/Ptx10 and Ptx22) ovarian adenocarcinoma cell lines were evaluated following the antiproliferative assay protocol as described earlier (Minguez et al., 2003; Choy et al., 2003; Lazo et al., 2001).” left out

The subject of a further test is HeLa cells. Description: Multiparameter fluorescence high information content analysis of cellular effects. The format is cell-based. Particulars: 24 h treatment; for Minimum detectable cellular change, Nuclear condensation: Hoechst 33342. Details: unit not given here. The protocol: HeLa cells were plated on collagen-coated 384-well microtiter plates, allowed to attach, then treated for 24 h with test agents. Test agent concentrations began at 1 μM, and two-fold dilutions were made to levels below 1 nM. After the treatment period, the cells were fixed with formalin and their chromatin stained with Hoechst 33342. Cells were permeabilized and treated with primary antibodies for α-tubulin and phosphohistone H3, and then with fluorophore-labeled secondary antibodies. The three fluorescent channels were then examined on an ArrayScan II, which gives quantitative pixel distribution and density information in each channel on a per cell basis.
HeLa cells growing at log phase were trypsinized and plated in 40 μL at a density of 7,000-8,000 cells per well in calf skin collagen I-coated 384-well plates (Falcon #3962; Fisher Scientific). Cells were exposed to test agents or 0.5% DMSO within 2-8 h of plating. Concentrated DMSO stock solutions of all test agents were diluted into solutions of HBSS medium plus 10% FBS and added to the microplate wells (10 μL per well), using an automated liquid handling system (Biomek® 2000; Beckman-Coulter, Inc.) to provide a serial 2-fold dilution of each test agent. The cells were incubated in the presence of test agents for 24 h. At the end of the incubation, the medium was removed and replaced with HBSS containing 4% formaldehyde and 10 μg/mL Hoechst 33342 (25 μL/well) to fix the cells and fluorescently label their chromatin. After incubation at room temperature for 20-30 min, the solution was removed from each well and replaced with HBSS (100 μL/well). Further reagent additions were made to the microplates using the Biomek 2000. After removing the HBSS from each well, cells were permeabilized for 5 min at room temperature with 0.5% (w/w) Triton X-100 in HBSS (10 μL/well). This step extracts a fraction of the soluble cellular components, including soluble tubulin. The wells were washed with HBSS (100 μL/well), followed by addition of a primary antibody solution containing mouse anti-α-tubulin (1:3000) and rabbit anti-phosphohistone H3 (1:500) in HBSS (10 μL/well). After 1 h at room temperature, the wells were washed with HBSS as above, followed by the addition of a secondary antibody solution containing fluorescein-5-isothiocyanate (FITC)-labeled donkey anti-mouse (1:300) and Cy3-labeled donkey anti-rabbit (1:300) antibodies diluted in HBSS (10 μL/well). After 1 h at room temperature, the wells were washed as above, and HBSS was added (100 μL/well). The plates were placed in an ArrayScan® HCS Reader with the Target Activation BioApplication Software coupled to Cellomics® Store and the vHCS™ Discovery Toolbox (Cellomics, Inc.) to analyze images. Briefly, the instrument was used to scan multiple optical fields, each with multiparameter fluorescence, within a subset of the wells of the 384-well microplate. The BioApplication software produced multiple numerical feature values, such as subcellular object intensities, shapes, and location for each cell within an optical field. […] A nuclear mask was generated from Hoechst 33342-stained nuclei, and object identification thresholds and shape parameters were set such that the algorithm identified over 90% of the nuclei in each field. Objects that touched each other or the edge of the image were excluded from the analysis. Tubulin mass was defined as the average green (FITC) pixel intensity in an area defined by the Hoechst-defined nuclear mask. This cytoplasmic area around the nucleus contains cytoskeletal components is a region from which sensitive measurements of cytoplasmic characteristics can be made.

Where [5] appears, read: read-out: GI50 ± S.D., 1A9/Ptx10 (Phe270 −> Val), 72 h incubation.
Where [6] appears, read: read-out: GI50 ± S.D., 1A9/Ptx22 (Ala364 −> Thr), 72 h incubation.
[7] abbreviates: read-out: GI50 ± S.D., 1A9 parental cells, 72 h incubation.

As a reminder, the EC50 is the concentration at which the effect is half-maximal. For `C=CC=CC(C)C1OC(=O)C=CC=CC(C)C(O)CC(O)C=CC(C)C(O)C(C)CC(C)CCC(O)C1C` [Compound 109, 8(S),10(S),14(R),20(S)-Tetrahydroxy-7(S),13(S),15(R),17(S),21(S)-pentamethyl-22(S)-(1(S)-methyl-penta-2,4-dienyl)oxacyclodocosa-3(E),5(E),11(Z)-trien-2-one], the “Percent inhibition of radiolabel from microtubules, [3H]Paclitaxel” value (from here on “Percent inhibition of radiolabel”) in test [1] is 0 ± 1%. Further, the fold-resistance is recorded as 1 fold in test [2] and 1.2 fold in test [3]. For the same molecule, the results for the GI50 in test [2] (setting [5]), in test [3] (setting [6]) and in test [4] (setting [7]) were 25 ± 1 µM, 30 ± 1 µM and 25 ± 2 µM, respectively. For the same molecule, the “% Tubulin polymerized by 50 μM test agent” value (“% Tubulin polymerized” for short) with Bovine brain tubulin was determined as 5 ± 4%. Also, the EC50 with Bovine brain tubulin was above 50 µM. Besides, the “antiproliferative potency / GI50 values (in words)” value in test [4] is given as “mid micromolar GI50 values”. Also, the “Minimum detectable cellular change, Phosphohistone H3” value in the test on HeLa cells is given as >5000 (4). Further, the “Minimum detectable cellular change, Tubulin polymer intensity” value in the test with HeLa cells is on record as >5000 (4). In the test with HeLa cells, the “Minimum detectable cellular change, Nuclear condensation” value is given as >5000 (4).

In the case of `C=CC=CC(C)C1OC(=O)C=CC=CC(C)C(O)CC(O)C=CC(C)C(O)C(C)CC(C)CCC(O)C1C` [Compound 108, 8(S),10(S),14(R),20(S)-Tetrahydroxy-7(S),13(S),15(R),17(S),21(S)-pentamethyl-22(S)-(1(S)-methyl-penta-2,4-dienyl)oxacyclodocosa-3(Z),5(E),11(Z)-trien-2-one], in test [1], the “Percent inhibition of radiolabel” value amounted to 0 ± 1%. The fold-resistance in test [2] was 0.9 fold. In test [2] (Homo sapiens, 1A9/ptx-10, 72 h, read-out: GI50 ± S.D., 1A9/Ptx10 (Phe270 −> Val), 72 h incubation), the GI50 turned out to be 26 µM. Moreover, in test [3], the fold-resistance is recorded as 1.1 fold. In addition, the GI50 in test [3] (Homo sapiens, 1A9/ptx-22, 72 h, read-out: GI50 ± S.D., 1A9/Ptx22 (Ala364 −> Thr), 72 h incubation) worked out at 30 ± 1 µM. Further, in the test on Bovine brain tubulin, the “% Tubulin polymerized” value stood at 5 ± 1% and the concentration giving a half-maximal response (EC50) was above 50 µM. Besides, the GI50 in test [4] (Homo sapiens, Ovarian carcinoma cell, 72 h, read-out: GI50 ± S.D., 1A9 parental cells, 72 h incubation) amounted to 28 ± 1 µM. For the same molecule, in test [4], the “antiproliferative potency / GI50 values (in words)” value was “mid micromolar GI50 values”. Also, in the test on HeLa cells, the “Minimum detectable cellular change, Phosphohistone H3” value is >5000 (4); the “Minimum detectable cellular change, Tubulin polymer intensity” value is >5000 (4); the “Minimum detectable cellular change, Nuclear condensation” value is >5000 (4).

As for `C=CC=CC(C)C1OC(=O)C=CC=CC(C)C(O)CC(O)C=CC(C)C(O)C(C)CC(C)CCC(O)C1C` [Compound 100, 8(S),10(S),14(R),20(R)-Tetrahydroxy-7(S),13(S),15(R),17(S),21 (S)-pentamethyl-22(S)-(1(S)-methyl-penta-2,4-dienyl)-oxa-cyclodocosa-3(E),5(E),11(Z)-trien-2-one], the “Percent inhibition of radiolabel” value in test [1] is listed as 0 ± 1%. In test [2], the fold-resistance was 2.5 fold. Also, the GI50 in test [2] (setting [5]) worked out at 0.78 ± 0.2 µM. In test [3], the fold-resistance came out at 2.5 fold. In test [3] (setting [6]), the GI50 stood at 0.79 ± 0.56 µM. Moreover, in the test on Bovine brain tubulin, the “% Tubulin polymerized” value stood at 1 ± 1% and the concentration giving a half-maximal response (EC50) was above 50 µM. The “antiproliferative potency / GI50 values (in words)” value in test [4] is given as “high nanomolar GI50 values”. In addition, the GI50 in test [4] (setting [7]) came to 0.31 ± 0.04 µM. In the test on HeLa cells, the “Minimum detectable cellular change, Phosphohistone H3” value is reported as >5000 (4); the “Minimum detectable cellular change, Tubulin polymer intensity” value is >5000 (4); the “Minimum detectable cellular change, Nuclear condensation” value was >5000 (4).
